Measured values published in patent US5043450A, “8-alkoxyquinolonecarboxylic acid and salts thereof” (priority 1986, dated 1991).
≈ marks a conversion by molar mass, not a printed value.

Columns and labels:
Test in all cases: Antibacterial spectra, MIC
Type in all cases: cell-based
S. pyogenes IID 692 = settings: Streptococcus pyogenes, IID692; 10^6 cells/ml; Gram +; read-out: MIC
[1] = system: Peptococcus magnus KY 017; settings: Finegoldia magna, KY017; 10^6 cells/ml; Gram +; read-out: MIC
[2] = system: Klebsiella pneumoniae KY(GN)6445
[3] = system: Peptostreptococcus anaerobius KYA 27337; settings: KYA27337, 10^6 cells/ml, Gram +, read-out: MIC
S. pneumoniae IID 552 = settings: Streptococcus pneumoniae, IID552; 10^6 cells/ml; Gram +; read-out: MIC
P. mirabilis IID 994 = settings: Proteus mirabilis, IID994; 10^6 cells/ml; Gram -; read-out: MIC
Bacilus subtilis PCI 219 = settings: Bacillus subtilis, PCI219
P. maltophilia GIFU 2491 = settings: Stenotrophomonas maltophilia, GIFU2491; 10^6 cells/ml; Gram -; read-out: MIC
[4] = system: Pseudomonas aeruginosa V-1; settings: V1, 10^6 cells/ml, Gram -, read-out: MIC
P. aeruginosa IFO 12689 = settings: Pseudomonas aeruginosa, IFO12689; 10^6 cells/ml; Gram -; read-out: MIC

Compound: CCOc1c(N2CCNCC2)c(F)cc2c(=O)c(C(=O)O)cn(C3CC3)c12 [Exp. 18, 1-cyclopropyl-6-fluoro-1,4-dihydro-8-ethoxy-4-oxo-7-(1-piperazinyl)-3-quinolinecarboxylic acid]
- MIC (S. pyogenes IID 692): 3.13 µg/mL (≈ 8.34 µM)
- MIC [1]: 0.78 µg/mL (≈ 2.08 µM)
- MIC [2]: ≤ 0.05 µg/mL
- MIC [3]: 3.13 µg/mL (≈ 8.34 µM)
- MIC (S. pneumoniae IID 552): 0.78 µg/mL (≈ 2.08 µM)
- MIC (P. mirabilis IID 994): 0.1 µg/mL (≈ 0.266 µM)
- MIC (Bacilus subtilis PCI 219): ≤ 0.05 µg/mL
- MIC (P. maltophilia GIFU 2491): 0.39 µg/mL (≈ 1.04 µM)
- MIC [4]: 0.78 µg/mL (≈ 2.08 µM)
- MIC (P. aeruginosa IFO 12689): 3.13 µg/mL (≈ 8.34 µM)
